# Measured values: patent US8080552B2, “Pyrimidyl derivatives as protein kinase inhibitors” (Hoffmann-LA Roche Inc., priority 2006, dated 2011)
# How the values were obtained:
# HCT 116 cells = test: CellTiter-Glo assay in HCT 116 cells; type: cell-based; details: 120 h; HCT 116 human colon carcinoma cells, 5 days incubation, cell viability (ATP luminescence)
# From the text: CellTiter-Glo™ Assay in HCT 116 Cells:
# The CellTiter-Glo™ Luminescent Cell Viability Assay (Promega) is a homogeneous method of determining the number of viable cells in culture based on quantitation of the ATP present, which signals the presence of metabolically active cells.
# HCT 116 cells (human colon carcinoma, ATCC-No. CCl-247) were cultivated in RPMI 1640 medium with GlutaMAX™ I (Invitrogen, Cat-No. 61870-010), 5% Fetal Calf Serum (FCS, Sigma Cat-No. F4135 (FBS)); 100 Units/ml penicillin/100 μg/ml streptomycin (=Pen/Strep from Invitrogen Cat. No. 15140). For the assay the cells were seeded in 384 well plates, 1000 cells per well, in the same medium. The next day the test compounds were added in various concentrations ranging from 30 μM to 0.0015 μM (10 concentrations, 1:3 diluted). After 5 days the CellTiter-Glo™ assay was done according to the instructions of the manufacturer (CellTiter-Glo™ Luminescent Cell Viability Assay, from Promega). In brief: the cell-plate was equilibrated to room temperature for approximately 30 minutes and than the CellTiter-Glo™ reagent was added. The contents were carefully mixed for 15 minutes to induce cell lysis. After 45 minutes the luminescent signal was measured in Victor 2, (scanning multiwell spectrophotometer, Wallac).
# • Medium: RPMI 1640 with GlutaMAX™ I (Invitrogen, Cat-Nr. 61870), 5% FCS (Sigma Cat.-No. F4135), Pen/Strep (Invitrogen, Cat No. 15140). • HCT116 (ATCC-No. CCl-247): 1000 cells in 60 μl per well of 384 well plate (Greiner 781098, μClear-plate white) • After seeding incubate plates 24 h at 37° C., 5% CO2 2nd. Day: Induction (Treatment with Compounds, 10 Concentrations):
# In order to achieve a final concentration of 30 μM as highest concentration 3.5 μl of 10 mM compound stock solution were added directly to 163 μl media. Then step e) of the dilution procedure described below, was followed.
# VEGF-induced HUVEC cells = test: CellTiter-Glo assay in VEGF-induced HUVEC cells; type: cell-based; details: Homo sapiens; Table 2; VEGF-induced (20 ng/ml) HUVEC cells, 72 hours, cell viability (ATP luminescence); read-out: IC50 HCT 116
# Experimental: CellTiter-Glo™ Assay in VEGF-Induced HUVEC Cells:
# HUVEC-c (Human Umbilical Vein Endothelial Cells, from Promocell Cat-No. C-12200) cells were trypsinized, spinned down and plated in 384-well plates at 1500 cells per well in 60 μl endothelial basal medium (EBM-2 from Promocell, Cat-No. C-22211) with 0.5% Fetal Calf Serum (FCS, Sigma Cat-No. F4135 (FBS)). Cells were incubated overnight at 37° C., and the next day, test compounds (stock solution 140 μmol/l in medium with 4.2% dimethylsulfoxide (DMSO)) were added in 5 μl medium over a final concentration range of 10 μmol/l to 0.5 nmol/l and 0.3% DMSO. Compounds were tested in triplicates. After 2 hrs 5 μl VEGF (VEGF 165, R&D Systems, Cat-No. 293-VE-010, stock solution 280 ng/ml in medium) was added to a final concentration of 20 ng/ml. Cells were incubated for 72 hours at 37° C. in medium. Cell number was quantitated using CellTiter-Glo™ Luminescent Cell Viability Assay (from Promega) according to the instructions of the supplier. This assay measures the number of viable cells per well by measurement of luminescent signal based on amount of cellular ATP. IC50 are determined using a non-linear curve fit (XLfit software (ID Business Solution Ltd., Guilford, Surrey, UK)) (see also CellTiter-Glo™ assay in HCT 116 cells above).
SMILES,IC50 (HCT 116 cells) [nM],IC50 (VEGF-induced HUVEC cells) [nM]
"O=C(Nc1ccc(Oc2cc(NCCCO)ncn2)cc1)Nc1ccc(Cl)c(C(F)(F)F)c1 [Example 23, 1-(4-Chloro-3-trifluoromethyl-phenyl)-3-{4-[6-(3-hydroxy-propylamino)-pyrimidin-4-yloxy]-phenyl}-urea]",,5 to 750
"C[Si](C)(C)c1ccc(NC(=O)Nc2ccc(Oc3ccnc(NCCCO)n3)cc2)cc1 [Example 14, 1-{4-[2-(3-Hydroxy-propylamino)-pyrimidin-4-yloxy]-phenyl}-3-(4-trimethylsilanyl-phenyl)-urea]",1520,5 to 750
"O=C(Nc1ccc(Oc2ccnc(NCCCCO)n2)cc1)Nc1ccc(Cl)c(C(F)(F)F)c1 [Example 10, 1-(4-Chloro-3-trifluoromethylphenyl)-3-{4-[2-(4-hydroxy-butylamino)-pyrimidin-4-yloxy]-phenyl}-urea]",300 to 10000,5 to 750
"O=C(Nc1ccc(Oc2ccnc(NCCCO)n2)cc1)Nc1cc(C(F)(F)F)ccc1Cl [Example 19, 1-(2-Chloro-5-trifluoromethyl-phenyl)-3-{4-[2-(3-hydroxy-propylamino)-pyrimidin-4-yloxy]-phenyl}-urea]",,5 to 750
"O=C(Nc1ccc(Oc2ccnc(NCCCO)n2)cc1)Nc1cc(C(F)(F)F)ccc1F [Example 8, 1-(2-Fluoro-5-trifluoromethyl-phenyl)-3-{4-[2-(3-Hydroxy-propylamino)-pyrimidin-4-yloxy]-phenyl}-urea]",300 to 10000,5 to 750
"O=C(Nc1ccc(Oc2ccnc(NCCCO)n2)cc1)Nc1cccc(C(F)(F)F)c1 [Example 7, 1-{4-[2-(3-Hydroxy-propylamino)-pyrimidin-4-yloxy]-phenyl}-3-(3-trifluoromethyl-phenyl)-urea]",300 to 10000,5 to 750
"O=C(Nc1ccc(Oc2ccnc(NCCCO)n2)cc1)Nc1ccc(Cl)c(C(F)(F)F)c1 [Example 9, 1-(4-Chloro-3-trifluoromethylphenyl)-3-{4-[2-(3-Hydroxy-propylamino)-pyrimidin-4-yloxy]-phenyl}-urea]",3990,5 to 750
"CC(C)(C)c1cccc(NC(=O)Nc2ccc(Oc3ccnc(NCCCO)n3)cc2)c1 [Example 4, 1-(3-tert-Butyl-phenyl)-3-{4-[2-(3-Hydroxy-propylamino)-pyrimidin-4-yloxy]-phenyl}-urea]",300 to 10000,5 to 750
"O=C(Nc1ccc(Cl)cc1)Nc1ccc(Oc2ccnc(NCCCO)n2)cc1 [Example 6, 1-(4-Chloro-phenyl)-3-{4-[2-(3-hydroxy-propylamino)-pyrimidin-4-yloxy]-phenyl}-urea]",300 to 10000,257
"COc1ccc(C(F)(F)F)cc1NC(=O)Nc1ccc(Oc2ccnc(NCCCO)n2)cc1 [Example 1, 1-{4-[2-(3-Hydroxy-propylamino)-pyrimidin-4-yloxy]-phenyl}-3-(2-methoxy-5-trifluoromethyl-phenyl)-urea]",,67
"CC(C)(C)c1ccc(NC(=O)Nc2ccc(Oc3ccnc(NCCCO)n3)cc2)cc1 [Example 5, 1-(4-tert-Butyl-phenyl)-3-{4-[2-(3-Hydroxy-propylamino)-pyrimidin-4-yloxy]-phenyl}-urea]",,5 to 750
"O=C(Nc1ccc(Oc2ccnc(NCCCO)n2)c(Cl)c1)Nc1ccc(Cl)c(C(F)(F)F)c1 [Example 15, 1-(4-Chloro-3-trifluoromethyl-phenyl)-3-{3-chloro-4-[2-(3-hydroxy-propylamino)-pyrimidin-4-yloxy]-phenyl}-urea]",,5 to 750

# Further lines, with some results ahead:
IC50 (HCT 116 cells) [nM],SMILES,IC50 (VEGF-induced HUVEC cells) [nM]
300 to 10000,"O=C(Nc1ccc(Oc2ccnc(NCCCO)n2)cc1)Nc1ccc2c(c1)OC(F)(F)O2 [Example 28, 1-(2,2-Difluoro-benzo[1,3]dioxol-5-yl)-3-{4-[2-(3-hydroxy-propylamino)-pyrimidin-4-yloxy]-phenyl}-urea]",82
300 to 10000,"O=C(Nc1ccc(Oc2cc(NCCCO)ncn2)cc1)Nc1cccc(C(F)(F)F)c1 [Example 21, 1-{4-[6-(3-Hydroxy-propylamino)-pyrimidin-4-yloxy]-phenyl}-3-(3-trifluoromethyl-phenyl)-urea]",5 to 750
300 to 10000,"CC(C)(C#N)c1ccc(NC(=O)Nc2ccc(Oc3ccnc(NCCCO)n3)cc2)cc1 [Example 24, 1-[4-(Cyano-dimethyl-methyl)-phenyl]-3-{4-[2-(3-Hydroxy-propylamino)-pyrimidin-4-yloxy]-phenyl}-urea]",
300 to 10000,"O=C(Nc1ccc(Oc2cc(NCCO)ncn2)cc1)Nc1ccc(Cl)c(C(F)(F)F)c1 [Example 22, 1-(4-Chloro-3-trifluoromethyl-phenyl)-3-{4-[6-(2-hydroxy-ethylamino)-pyrimidin-4-yloxy]-phenyl}-urea]",5 to 750
300 to 10000,"O=C(Nc1ccc(Oc2cc(NCCO)ncn2)cc1)Nc1cccc(C(F)(F)F)c1 [Example 20, 1-{4-[6-(2-Hydroxy-ethylamino)-pyrimidin-4-yloxy]-phenyl}-3-(3-trifluoromethyl-phenyl)-urea]",5 to 750
300 to 10000,"CC1(C)CNc2cc(NC(=O)Nc3ccc(Oc4ccnc(NCCCO)n4)cc3)ccc21 [Example 29, 1-(3,3-Dimethyl-2,3-dihydro-1H-indol-6-yl)-3-{4-[2-(3-hydroxy-propylamino)-pyrimidin-4-yloxy]-phenyl}-urea]",5 to 750
300 to 10000,"O=C(Nc1ccc(Oc2ccnc(NCCO)n2)cc1)Nc1ccc(Cl)c(C(F)(F)F)c1 [Example 11, 1-(4-Chloro-3-trifluoromethylphenyl)-3-{4-[2-(2-hydroxy-ethylamino)-pyrimidin-4-yloxy]-phenyl}-urea]",
300 to 10000,"CC(C#N)c1cccc(NC(=O)Nc2ccc(Oc3ccnc(NCCCO)n3)cc2)c1 (stereo not shown) [Example 26, 1-[3-(Cyano-methyl-methyl)-phenyl]-3-{4-[2-(3-hydroxy-propylamino)-pyrimidin-4-yloxy]-phenyl}-urea]",5 to 750
300 to 10000,"O=C(Nc1ccc(Cl)c(C(F)(F)F)c1)Nc1ccc(Oc2ccnc(NCCCO)n2)cc1F [Example 18, 1-(4-Chloro-3-trifluoromethyl-phenyl)-3-{2-fluoro-4-[2-(3-hydroxy-propylamino)-pyrimidin-4-yloxy]-phenyl}-urea]",5 to 750
300 to 10000,"O=C(Nc1ccc(Oc2ccnc(NCCCO)n2)c(F)c1)Nc1ccc(Cl)c(C(F)(F)F)c1 [Example 17, 1-(4-Chloro-3-trifluoromethyl-phenyl)-3-{3-fluoro-4-[2-(3-hydroxy-propylamino)-pyrimidin-4-yloxy]-phenyl}-urea]",5 to 750
300 to 10000,"CC(O)CCNc1nccc(Oc2ccc(NC(=O)Nc3ccc(Cl)c(C(F)(F)F)c3)cc2)n1 (stereo not shown) [Example 12, 1-(4-Chloro-3-trifluoromethylphenyl)-3-{4-[2-(3-hydroxy-butylamino)-pyrimidin-4-yloxy]-phenyl}-urea]",5 to 750
300 to 10000,"CC(C)(C#N)c1cccc(NC(=O)Nc2ccc(Oc3ccnc(NCCCO)n3)cc2)c1 [Example 25, 1-[3-(Cyano-dimethyl-methyl)-phenyl]-3-{4-[2-(3-hydroxy-propylamino)-pyrimidin-4-yloxy]-phenyl}-urea]",5 to 750
300 to 10000,"O=C(Nc1ccccc1)Nc1ccc(Oc2ccnc(NCCCO)n2)cc1 [Example 13, 1-{4-[2-(3-Hydroxy-propylamino)-pyrimidin-4-yloxy]-phenyl}-3-phenyl-urea]",5 to 750
